From US20230002359A1, “PESTICIDALLY ACTIVE FUSED BICYCLIC HETEROAROMATIC COMPOUNDS” (priority 2019, published 2023)

How the values were obtained:
Assay type in all cases: in vivo
[1] = system: Diabrotica Balteata (Corn Root Worm); test: Example B1: Diabrotica balteata (corn root worm), maize sprouts sprayed, L2 larvae; conditions: 96 h, application rate of 200 ppm, 4 days after infestation, L2 larvae, read-out: control in at least one of the two categories (mortality or growth inhibition)
Procedure, shortened: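 Read-out is mortality plus growth inhibition relative to untreated controls, assessed 4 days after infestation. Sprouts resting on agar are sprayed with aqueous solutions derived from 10′000 ppm DMSO stocks and left to dry before L2 larvae (6 to 10 per well) are added.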

[2] = system: Plutella xylostella (Diamond Back Moth); test: Example B4: Plutella xylostella (diamond back moth), artificial diet, eggs, 24-well; conditions: 192 h, application rate of 200 ppm, 8 days after infestation, eggs, read-out: control in at least one of the two categories (mortality or growth inhibition)
Description: 24-well microtiter plates with artificial diet were treated with aqueous test solutions prepared from 10′000 ppm DMSO stock solutions by pipetting. After drying, Plutella eggs were pipetted through a plastic stencil onto a gel blotting paper and the plate was closed with it. The samples were assessed for mortality and growth inhibition in comparison to untreated samples 8 days after infestation.

[3] = system: Spodoptera littoralis (Egyptian Cotton Leaf Worm); test: Example B7: Spodoptera littoralis (Egyptian cotton leaf worm), cotton leaf discs sprayed, L1 larvae; conditions: foliar, 72 h, application rate of 200 ppm, 3 days after infestation, L1 larvae, read-out: control in at least one of the three categories (mortality, anti-feedant effect, or growth inhibition)
Description: Cotton leaf discs were placed onto agar in 24-well microtiter plates and sprayed with aqueous test solutions prepared from 10′000 ppm DMSO stock solutions. After drying the leaf discs were infested with five L1 larvae. The samples were assessed for mortality, anti-feeding effect, and growth inhibition in comparison to untreated samples 3 days after infestation. Control of Spodoptera littoralis by a test sample is given when at least one of the categories mortality, anti-feedant effect, and growth inhibition is higher than the untreated sample.

[4] = system: Chilo suppressalis (Striped Rice Stemborer); test: Example B3: Chilo suppressalis (striped rice stemborer), artificial diet, L2 larvae; conditions: 144 h, application rate of 200 ppm, 6 days after infestation, L2 larvae, read-out: control in at least one of the three categories (mortality, anti-feedant effect, or growth inhibition)
Procedure, shortened: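 Scoring covers mortality, anti-feedant effect and growth inhibition at 6 days post-infestation, relative to untreated diet, with activity defined as at least one category above untreated. Test solutions were aqueous, made from 10'000 ppm DMSO stocks, and applied to artificial diet before drying and infestation with L2 larvae.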

C[C@H](Nc1ccnc2c(Br)cc(C(F)(F)F)cc12)c1ncnn1-c1ncccn1 [P.209, 8-bromo-N-[(1S)-1-(2-pyrimidin-2-yl-1,2,4-triazol-3-yl)ethyl]-6-(trifluoromethyl)quinolin-4-amine]
≥ 80%: percent control (mortality or growth inhibition) at 200 ppm [1] | percent control (mortality or growth inhibition) at 200 ppm [2] | percent control (mortality, anti-feedant effect or growth inhibition) at 200 ppm [3] | percent control (mortality, anti-feedant effect or growth inhibition) at 200 ppm [4]

CC(Nc1ncnc2c(Cl)cc(Br)cc12)c1nccnc1-c1ncccn1 (centres unmarked) [P.178, 6-bromo-8-chloro-N-[1-(3-pyrimidin-2-ylpyrazin-2-yl)ethyl]quinazolin-4-amine]
≥ 80%: percent control (mortality or growth inhibition) at 200 ppm [1] | percent control (mortality or growth inhibition) at 200 ppm [2] | percent control (mortality, anti-feedant effect or growth inhibition) at 200 ppm [3] | percent control (mortality, anti-feedant effect or growth inhibition) at 200 ppm [4]

C[C@H](Nc1ccnc2c(C(F)(F)F)cc(Br)cc12)c1ncnn1-c1ccc(C#N)cn1 [P.252, 6-[5-[(1S)-1-[[6-bromo-8-(trifluoromethyl)-4-quinolyl]amino]ethyl]-1,2,4-triazol-1-yl]pyridine-3-carbonitrile]
≥ 80%: percent control (mortality or growth inhibition) at 200 ppm [1] | percent control (mortality or growth inhibition) at 200 ppm [2] | percent control (mortality, anti-feedant effect or growth inhibition) at 200 ppm [3] | percent control (mortality, anti-feedant effect or growth inhibition) at 200 ppm [4]

CC(c1nccnc1-c1ncccn1)N(CC1CC1)c1ncnc2c(Br)cc(C(F)(F)F)cc12 (centres unmarked) [P.99, 8-bromo-N-(cyclopropylmethyl)-N-[1-(3-pyrimidin-2-ylpyrazin-2-yl)ethyl]-6-(trifluoromethyl)quinazolin-4-amine]
≥ 80%: percent control (mortality or growth inhibition) at 200 ppm [1] | percent control (mortality or growth inhibition) at 200 ppm [2] | percent control (mortality, anti-feedant effect or growth inhibition) at 200 ppm [3] | percent control (mortality, anti-feedant effect or growth inhibition) at 200 ppm [4]

CC(c1ncnn1-c1ccc(C#N)cn1)N(C)c1nccc2c(C(F)(F)F)cc(C(F)(F)F)cc12 (centres unmarked) [P.211, 6-[5-[1-[[5,7-bis(trifluoromethyl)-1-isoquinolyl]-methyl-amino]ethyl]-1,2,4-triazol-1-yl]pyridine-3 carbonitrile]
≥ 80%: percent control (mortality or growth inhibition) at 200 ppm [1] | percent control (mortality or growth inhibition) at 200 ppm [2] | percent control (mortality, anti-feedant effect or growth inhibition) at 200 ppm [3] | percent control (mortality, anti-feedant effect or growth inhibition) at 200 ppm [4]

CC(c1nccnc1-c1ccc(C#N)cn1)N(CC1CC1)c1ncnc2c(C(F)(F)F)cc(C(F)(F)F)cc12 (centres unmarked) [P.126, 6-[3-[1-[[6,8-bis(trifluoromethyl)quina-zolin-4-yl]-(cyclopropylmethyl)amino]ethyl]pyrazin-2-yl]pyridine-3-carbonitrile]
≥ 80%: percent control (mortality or growth inhibition) at 200 ppm [1] | percent control (mortality or growth inhibition) at 200 ppm [2] | percent control (mortality, anti-feedant effect or growth inhibition) at 200 ppm [3] | percent control (mortality, anti-feedant effect or growth inhibition) at 200 ppm [4]

CC(Nc1ncnc2c(C(F)(F)F)cc(C(F)(F)F)cc12)c1nccnc1-c1ccc(OC(F)F)cn1 (centres unmarked) [P.109, N-[1-[3-[5-(difluoromethoxy)-2-pyridyl]pyrazin-2-yl]ethyl]-6,8-bis(trifluoromethyl)quina-zolin-4-amine]
≥ 80%: percent control (mortality or growth inhibition) at 200 ppm [1] | percent control (mortality or growth inhibition) at 200 ppm [2] | percent control (mortality, anti-feedant effect or growth inhibition) at 200 ppm [3] | percent control (mortality, anti-feedant effect or growth inhibition) at 200 ppm [4]

CC(c1ncnn1-c1ccc(F)cn1)N(C)c1ncnc2c(C(F)(F)F)cc(C(F)(F)F)cc12 (centres unmarked) [P.189, N-[1-[2-(5-fluoro-2-pyridyl)-1,2,4-triazol-3-yl]ethyl]-N-methyl-6,8-bis(trifluoromethyl)quina-zolin-4-amine]
≥ 80%: percent control (mortality or growth inhibition) at 200 ppm [1] | percent control (mortality or growth inhibition) at 200 ppm [2] | percent control (mortality, anti-feedant effect or growth inhibition) at 200 ppm [3] | percent control (mortality, anti-feedant effect or growth inhibition) at 200 ppm [4]

CC(c1ncnn1-c1ncccn1)N(C)c1nccc2c(C(F)(F)F)cc(C(F)(F)F)cc12 (centres unmarked) [P.250, N-methyl-N-[1-(2-pyrimidin-2-yl-1,2,4-triazol-3-yl)ethyl]-5,7-bis(trifluoromethyl)isoquino-lin-1-amine]
≥ 80%: percent control (mortality or growth inhibition) at 200 ppm [1] | percent control (mortality or growth inhibition) at 200 ppm [2] | percent control (mortality, anti-feedant effect or growth inhibition) at 200 ppm [3] | percent control (mortality, anti-feedant effect or growth inhibition) at 200 ppm [4]

CC(Nc1ncnc2c(Br)cc(C(F)(F)F)cc12)c1nccnc1-c1ncccn1 (centres unmarked) [P.96, 8-bromo-N-[1-(3-pyrimidin-2-ylpyrazin-2-yl)ethyl]-6-(trifluoromethyl)quinazolin-4-amine]
≥ 80%: percent control (mortality or growth inhibition) at 200 ppm [1] | percent control (mortality or growth inhibition) at 200 ppm [2] | percent control (mortality, anti-feedant effect or growth inhibition) at 200 ppm [3] | percent control (mortality, anti-feedant effect or growth inhibition) at 200 ppm [4]

CC(Nc1ncnc2c(OC(F)F)cc(Br)cc12)c1nccnc1-n1nccn1 (centres unmarked) [P.31, 6-bromo-8-(difluoromethoxy)-N-[1-[3-(triazol-2-yl)pyrazin-2-yl]ethyl]quinazolin-4-amine]
≥ 80%: percent control (mortality or growth inhibition) at 200 ppm [1] | percent control (mortality or growth inhibition) at 200 ppm [2] | percent control (mortality, anti-feedant effect or growth inhibition) at 200 ppm [3] | percent control (mortality, anti-feedant effect or growth inhibition) at 200 ppm [4]

CC(c1nccnc1-n1nccn1)N(C)c1ncnc2c(C(F)(F)F)cc(C(F)(F)F)cc12 (centres unmarked) [P.103, N-methyl-N-[1-[3-(triazol-2-yl)pyrazin-2-yl]ethyl]-6,8-bis(trifluoromethyl)quina-zolin-4-amine]
≥ 80%: percent control (mortality or growth inhibition) at 200 ppm [1] | percent control (mortality or growth inhibition) at 200 ppm [2] | percent control (mortality, anti-feedant effect or growth inhibition) at 200 ppm [3] | percent control (mortality, anti-feedant effect or growth inhibition) at 200 ppm [4]

CC(Nc1ncnc2c(C(F)(F)F)cc(Cl)cc12)c1ncnn1-c1ccc(OC(F)F)cn1 (centres unmarked) [P.235, 6-chloro-N-[1-[2-[5-(difluoromethoxy)-2-pyridyl]-1,2,4-triazol-3-yl]ethyl]-8-(trifluoromethyl)quinazolin-4-amine]
≥ 80%: percent control (mortality or growth inhibition) at 200 ppm [1] | percent control (mortality or growth inhibition) at 200 ppm [2] | percent control (mortality, anti-feedant effect or growth inhibition) at 200 ppm [3] | percent control (mortality, anti-feedant effect or growth inhibition) at 200 ppm [4]

CC(c1nccnc1-c1ccc(OC(F)F)cn1)N(C)c1ncnc2c(C(F)(F)F)cc(C(F)(F)F)cc12 (centres unmarked) [P.110, N-[1-[3-[5-(difluoromethoxy)-2-pyridyl]pyrazin-2-yl]ethyl]-N-methyl-6,8-bis(trifluoromethyl)quina-zolin-4-amine]
≥ 80%: percent control (mortality or growth inhibition) at 200 ppm [1] | percent control (mortality or growth inhibition) at 200 ppm [2] | percent control (mortality, anti-feedant effect or growth inhibition) at 200 ppm [3] | percent control (mortality, anti-feedant effect or growth inhibition) at 200 ppm [4]

C[C@@H](c1ncnn1-c1ccc(C#N)cn1)N(C)c1ncnc2c(Cl)cc(C(F)(F)F)cc12 [P.19, 6-[5-[(1S)-1-[[8-chloro-6-(trifluoromethyl)quinazolin-4-yl]-methyl-amino]ethyl]-1,2,4-triazol-1-yl]pyridine-3-carbonitrile]
≥ 80%: percent control (mortality or growth inhibition) at 200 ppm [1] | percent control (mortality or growth inhibition) at 200 ppm [2] | percent control (mortality, anti-feedant effect or growth inhibition) at 200 ppm [3] | percent control (mortality, anti-feedant effect or growth inhibition) at 200 ppm [4]

CC(c1nccnc1-c1ncccn1)N(C)c1ncnc2c(Cl)cc(C(F)(F)F)cc12 (centres unmarked) [P.100, 8-chloro-N-methyl-N-[1-(3-pyrimidin-2-ylpyrazin-2-yl)ethyl]-6-(trifluoromethyl)quinazolin-4-amine]
≥ 80%: percent control (mortality or growth inhibition) at 200 ppm [1] | percent control (mortality or growth inhibition) at 200 ppm [2] | percent control (mortality, anti-feedant effect or growth inhibition) at 200 ppm [3] | percent control (mortality, anti-feedant effect or growth inhibition) at 200 ppm [4]

CC(c1ncnn1-c1ccc(Br)cn1)N(C)c1ncnc2c(C(F)(F)F)cc(C(F)(F)F)cc12 (centres unmarked) [P.241, N-[1-[2-(5-bromo-2-pyridyl)-1,2,4-triazol-3-yl]ethyl]-N-methyl-6,8-bis(trifluoromethyl)quina-zolin-4-amine]
≥ 80%: percent control (mortality or growth inhibition) at 200 ppm [1] | percent control (mortality or growth inhibition) at 200 ppm [2] | percent control (mortality, anti-feedant effect or growth inhibition) at 200 ppm [3] | percent control (mortality, anti-feedant effect or growth inhibition) at 200 ppm [4]
